In brackets after ≈: the same amount, converted by molar mass.
Legend:
[1] = test system: Aspergillus niger ATCC 16404; test: MIC by broth microdilution (RPMI 1640); assay type: cell-based; conditions: ATCC16404
Procedure: (§1) We have tested the antimicrobial activity in vitro of over 100 tris(indolyl)methane derivatives against 16 strains of Gram-positive, Gram-negative bacteria and fungi including either sensitive or drug-resistant strains from ATCC, as well as resistant clinical isolates from the culture collection of the Laboratory for Control of Hospital Infections (Sechenov University, Moscow, Russia). The minimum inhibitory concentrations (MICs) were determined by the microdilution method in a cation-adjusted Müller–Hinton medium for bacteria and in a liquid culture medium RPMI 1640 with L-glutamine without sodium bicarbonate for fungi in accordance with the requirements of the Institute of Clinical and Laboratory Standards (CLSI/NCCLS). […] As a rule, their activity against Gram-negative bacteria was usually not that high. […] For comparison, the antimicrobial activity of prototype 4 is shown. The antibacterial antibiotic levofloxacin and the antifungal amphotericin B were used as reference drugs (Table 1).
(§2) The synthesis of compounds and the scheme of their preparation and purification, as well as physicochemical characteristics, were described earlier. To evaluate the biological activity in vitro, the compounds were dissolved in DMSO at a concentration of 2.0–6.4 mg/mL, followed by preparation of two-fold dilutions in the same solvent, if necessary. The solutions were further diluted in an aqueous medium for the final concentration of DMSO not to exceed 1%, and the concentration of the compounds ranged from 64.0 to 0.13 μg/mL. To study compounds in vivo, solutions for intravenous administration in 5% glucose solution were prepared. Solutions were sterilized by filtration through 0.22 µm filters (Millipore, Burlington, MA, USA).
(§3) Strains of Gram-positive, Gram-negative bacteria and fungi including sensitive or drug-resistant strains from ATCC, as well as resistant clinical isolates from the culture collection of the Laboratory for Control of Hospital Infections (Sechenov University, Moscow, Russia), were used. Clinical isolates of Gram-positive bacteria Staphylococcus aureus 5 (MRSA), Staphylococcus aureus 10, Staphylococcus aureus 100KC (MRSA), Staphylococcus epidermidis 533, Staphylococcus haemoliticus 585 and Enterococcus faecium 569, as well as collection cultures of Gram-positive bacteria Staphylococcus aureus ATCC 700699, Staphylococcus aureus ATCC 25923, Staphylococcus aureus ATCC 3798 and collection cultures of Gram-negative bacteria Escherichia coli ATCC 25922, Klebsiella pneumoniae ATCC 13883, Proteus vulgaris ATCC 13315, Salmonella cholerasuis ATCC 14028, Pseudomonas aeruginosa ATCC 27853 and collection cultures of the yeast Candida albicans ATCC 14053 and the fungi Aspergillus niger ATCC 16404 were used. To grow the microorganisms, we used Trypticase Soy Agar (TSA, Sigma-Aldrich Co., Burlington, MA, USA). Trypticase Soy Agar, BBL, was used for cultivation of Staphylococcus spp. and E. coli. For cultivation of Enterococcus spp. and P. aeruginosa we used a ready-made dry medium Columbia Agar Base, BBL. The media were sterilized by autoclaving at 121 °C for 15 min. Yeast culture C. albicans was grown on Sabouraud agar (peptone—10 g, glucose—40 g, agar—20 g, distilled water—1 L, pH 6.0), and filamentous fungi A. niger was grown on potato–glucose agar (potatoes—200 g, glucose—20 g, agar—15 g, distilled water—1 L, pH 5.5–6.0).
(§4) To determine the antibacterial effect, a liquid Müller–Hinton medium (Becton, Dickinson and Company, Cockeysville, MD, USA) was used; to determine the effect of compounds on fungi we used RPMI 1640 medium with L-glutamine, without sodium bicarbonate, which was prepared from a dry medium (ICN Biomedicals Inc., Costa Mesa, CA, USA) by dilution in distilled water, subsequent buffering with 0.165 M of morpholinepropanesulfonic acid (MOPS, Acros Organics B.V.B.A., Morris Plains, NJ, USA) and adjusting the pH of the medium to 7.0 by adding 1 N of NaOH solution. […]

[2] = test system: Candida albicans ATCC 14053; test: MIC by broth microdilution (RPMI 1640); assay type: cell-based; conditions: ATCC14053
Procedure: as §1, §2, §3, §4

[3] = Cytotoxic activity, MTT assay; assay type: cell-based, human; conditions: human, HPF-hTERT
Procedure: The cytotoxic activity of the compounds was evaluated on the healthy donor (postnatal) human fibroblasts immortalized by transfection of the hTERT gene of the catalytic component of telomerase (hereinafter HPF-hTERT) that were obtained from N.N. Blokhin Russian Cancer Research Center. HFC-hTERT cells were cultured in Dulbecco’s modified medium (DMEM) containing 2 mM of L-glutamine, 10% fetal calf serum, 100 U/mL of penicillin and 100 μg/mL of streptomycin. Incubation was performed in a humidified atmosphere of 5% CO2 at 37 °C. In the experiment, we used cells in the logarithmic growth phase. To study the cytotoxicity of compounds, 190 μL of cell suspension (~2 thousand cells per well) was added to the wells of 96-well plates and incubated for 16 h. On the day of the experiment, serial dilutions of the test compounds were prepared in DMSO (stock solution—10 mM in 100% DMSO). Further dilutions were conducted in a nutrient medium. The final concentrations of compounds in the experiment were in a concentration range from 0.0025 to 50 μM. The final concentration of DMSO was 1% or less. Each concentration was presented in 3 repetitions. […] The cells were incubated with the test compounds for 72 h. After the end of incubation, 20 μL of MTT solution in growth medium (5 mg/mL) was added to the wells. The cells were incubated for 2 h until a purple color developed, after which the culture medium was removed. DMSO was added to the wells, and the sediment was suspended. Optical density was measured with a Thermo Scientific Multiscan FC spectrophotometer at 570 nm. The values of optical density in wells without addition of test compounds (control) were taken as 100% cell survival. The percentage of survival of cells incubated with the test compounds was calculated by dividing the optical density in the corresponding well (average of 3 independent measurements) by the optical density in the control. The concentration of drugs causing 50% cell death (IC50) was evaluated and expressed in μg/mL.

[4] = test system: Proteus vulgaris ATCC 13315; test: MIC by broth microdilution; assay type: cell-based; conditions: ATCC13315
Procedure: as §1, §2, §3, §4

Staphylococcus aureus 10 = test: MIC by broth microdilution; assay type: cell-based
Procedure: as §1, §2, §3, §4

[5] = test system: Salmonella cholerasuis ATCC 14028; test: MIC by broth microdilution; assay type: cell-based; conditions: ATCC14028
Procedure: as §1, §2, §3, §4

Staphylococcus aureus 5 = test: MIC by broth microdilution; assay type: cell-based; conditions: Staphylococcus aureus 5 (MRSA)
Procedure: as §1, §2, §3, §4

[6] = test system: Staphylococcus aureus ATCC 700699; test: MIC by broth microdilution; assay type: cell-based; conditions: ATCC700699
Procedure: as §1, §2, §3, §4

[7] = test system: Klebsiella pneumoniae ATCC 13883; test: MIC by broth microdilution; assay type: cell-based; conditions: ATCC13883
Procedure: as §1, §2, §3, §4

Enterococcus faecium 569 = test: MIC by broth microdilution; assay type: cell-based; conditions: Enterococcus faecium 569
Procedure: as §1, §2, §3, §4

[8] = test system: Staphylococcus haemoliticus 585; test: MIC by broth microdilution; assay type: cell-based; conditions: Staphylococcus haemoliticus 585
Procedure: as §1, §2, §3, §4

[9] = test system: Staphylococcus epidermidis 533; test: MIC by broth microdilution; assay type: cell-based
Procedure: as §1, §2, §3, §4

[10] = test system: Pseudomonas aeruginosa ATCC 27853; test: MIC by broth microdilution; assay type: cell-based; conditions: ATCC27853
Procedure: as §1, §2, §3, §4

[11] = test system: Staphylococcus aureus ATCC 3798; test: MIC by broth microdilution; assay type: cell-based; conditions: ATCC3798
Procedure: as §1, §2, §3, §4

[12] = test system: Escherichia coli ATCC 25922; test: MIC by broth microdilution; assay type: cell-based; conditions: ATCC25922
Procedure: as §1, §2, §3, §4

[13] = test system: Staphylococcus aureus ATCC 25923; test: MIC by broth microdilution; assay type: cell-based; conditions: ATCC25923
Procedure: as §1, §2, §3, §4

[14] = test system: Staphylococcus aureus 100KC; test: MIC by broth microdilution; assay type: cell-based; conditions: Staphylococcus aureus 100KC (MRSA)
Procedure: as §1, §2, §3, §4

[15] = test system: yeast (Candida albicans) and fungi (Aspergillus niger); test: Antifungal activity; assay type: cell-based; conditions: Candida albicans and Aspergillus niger
Procedure: as §1
(§5) The minimum inhibitory concentrations (MIC) for Gram-positive and Gram-negative bacteria were determined by two-fold serial microdilution method in a cation-adjusted Müller–Hinton medium for bacteria and in a liquid culture medium RPMI 1640 with L-glutamine without sodium bicarbonate for fungi in accordance with the requirements of the Institute of Clinical and Laboratory Standards (CLSI/NCCLS). The antibacterial antibiotic levofloxacin and the antifungal antibiotic amphotericin B from Sigma-Aldrich were used as reference drugs.

Gram-positive bacteria = test: MIC against Gram-positive bacteria; assay type: cell-based
Procedure: as §1, §5

SMILES | MIC [1] | MIC [2] | IC50 at 72 h [3] | MIC [4] | MIC (Staphylococcus aureus 10) | MIC [5] | MIC (Staphylococcus aureus 5) | MIC [6] | MIC [7] | MIC (Enterococcus faecium 569) | MIC [8] | MIC [9] | MIC [10] | MIC [11] | MIC [12] | MIC [13] | MIC [14] | MIC [15] | MIC (Gram-positive bacteria)
C[C@@H]1[C@H](O)[C@@H](C)/C=C/C=C/C=C/C=C/C=C/C=C/C=C/[C@H](O[C@@H]2O[C@H](C)[C@@H](O)[C@H](N)[C@@H]2O)C[C@@H]2O[C@](O)(C[C@@H](O)C[C@@H](O)[C@H](O)CC[C@@H](O)C[C@@H](O)CC(=O)O[C@H]1C)C[C@H](O)[C@H]2C(=O)O [Amphotericin B, amphotericin B, reference compound] | 1 µg/mL (≈ 1.08 µM) | 1 µg/mL (≈ 1.08 µM) | 0.7 µg/mL (≈ 0.758 µM) | – | – | – | – | – | – | – | – | – | – | – | – | – | – | – | –
CCCn1cc([C+](c2cn(CCC)c3ccccc23)c2cn(CCC)c3ccccc23)c2ccccc21.[Cl-] [Compound 4, tris(1-propyl-1H-indol-3-yl) methylium chloride] | 2 µg/mL | 1 µg/mL | 0.07 µg/mL | 1 µg/mL | 0.25 µg/mL | 32 µg/mL | 0.5 µg/mL | 0.25 µg/mL | > 64 µg/mL | 1 µg/mL | 0.5 µg/mL | 0.13 µg/mL | 64 µg/mL | 0.25 µg/mL | 32 µg/mL | 0.25 µg/mL | 0.5 µg/mL | 2 µg/mL | 0.25 µg/mL

— PMC8878324, “Evaluation of New Antimicrobial Agents Based on tris(1H-Indol-3-yl)methylium Salts: Activity, Toxicity, Suppression of Experimental Sepsis in Mice” (Pharmaceuticals, 2022)
